Drawing on US12540141B2, “Spiropyrrolidine derived antiviral agents” (priority 2020, dated 2026), this text covers IC50 for 36 compounds.

Some results are limits rather than exact numbers.

The target in this assay is SARS-CoV-2 3CL-protease (Severe acute respiratory syndrome coronavirus 2, UniProt P0DTD1). Nature of the assay: SARS-CoV-2 3C-Like (3CL) Protease Fluorescence Assay (FRET). Type of assay: biochemical. To be noted: SARS-CoV-2 3CL-protease 10 nM, 30 min preincubation at RT, substrate 40 μM.
As to `CC(C)C[C@@H](C(=O)N1C[C@]2(C[C@H]1C#N)C(=O)Nc1ccccc12)N(C)C(=O)c1cc2c(Cl)c(Cl)ccc2[nH]1` [Example 328], the half-inhibitory concentration (IC50) is < 100 nM.
As for `Cc1cc(C)c2ccc(C(=O)N(C)[C@@H](CC(C)C)C(=O)N3C[C@]4(C[C@H]3C#N)C(=O)Nc3ccccc34)nc2c1O` [Example 259], the figure is 100 to 1000 nM.
The same measure for `CC(C)C[C@@H](C(=O)N1C[C@]2(C[C@H]1C#N)C(=O)Nc1ccccc12)N(C)C(=O)c1cccc(-c2ccccc2C#N)c1` [Example 278]: < 100 nM; for `CC(C)C[C@@H](C(=O)N1C[C@]2(C[C@H]1C#N)C(=O)Nc1ccccc12)N(C)C(=O)c1cccc2ccccc12` [Example 241]: < 100 nM.
Turning to `CN(C(=O)Cc1ccccn1)[C@@H](CC(C)(C)F)C(=O)N1C[C@]2(C[C@H]1C#N)C(=O)Nc1ccc(Cl)cc12` [Example 483], the IC50 is < 100 nM.
`COc1cccc2[nH]c(C(=O)N(C)[C@@H](COC(C)(C)C)C(=O)N3C[C@]4(C[C@H]3C#N)C(=O)Nc3ccccc34)cc12` [Example 370]: the IC50 was < 100 nM.
As for `[2H]C([2H])([2H])N(C(=O)Cc1ccncc1)[C@@H](CC(C)(C)F)C(=O)N1C[C@]2(C[C@H]1C#N)C(=O)Nc1ccc(Cl)cc12` [Example 474], the figure is < 100 nM.
Turning to `CC(C)(F)C[C@H](NC(=O)c1ccc(F)cc1F)C(=O)N1C[C@]2(C[C@H]1C#N)C(=O)Nc1ccc(Cl)cc12` [Example 449], the concentration for half-maximal inhibition (IC50) lay within 100 to 1000 nM.
As for `CC(C)(C)C[C@H](NC(=O)OC(C)(C)c1ccc(F)cc1)C(=O)N1C[C@]2(C[C@H]1C#N)C(=O)Nc1ccc(Cl)cc12` [Example 496], the figure is > 1000 nM; as for `CC(C)C[C@@H](C(=O)N1C[C@]2(C[C@H]1C#N)C(=O)Nc1ccccc12)N(C)C(=O)c1ccc2cc(F)ccc2c1` [Example 222], 100 to 1000 nM; as for `CCCC[C@H](NC(=O)[C@H](O)c1ccc(F)cc1)C(=O)N1C[C@]2(C[C@H]1C#N)C(=O)Nc1ccccc12` [Example 419], < 100 nM.
The same measure for `CC(C)C[C@@H](C(=O)N1C[C@]2(C[C@H]1C#N)C(=O)Nc1ccccc12)N(C)C(=O)c1cc2cc(C#N)ccc2[nH]1` [Example 327]: < 100 nM; for `CC(C)(F)C[C@H](NC(=O)c1cccc(OC(F)(F)F)c1)C(=O)N1C[C@]2(C[C@H]1C#N)C(=O)Nc1ccc(Cl)cc12` [Example 447]: < 100 nM; for `CC(C)C[C@@H](C(=O)N1C[C@]2(C[C@H]1C#N)C(=O)Nc1ccc(NC(=O)C3(F)CC3)cc12)N(C)C(=O)c1cc2c(F)cc(F)cc2[nH]1` [Example 504, N—((S)-1-((3R,5′S)-5′-cyano-5-(1-fluorocyclopropane-1-carboxamido)-2-oxospiro[indoline-3,3′-pyrrolidin]-1′-yl)-4-methyl-1-oxopentan-2-yl)-4,6-difluoro-N-methyl-1H-indole-2-carboxamide]: < 100 nM.
As for `CC(C)(C)C[C@H](NC(=O)c1cc2c(F)cc(F)cc2[nH]1)C(=O)N1C[C@]2(C[C@H]1C#N)C(=O)Nc1ccc(Cl)cc12` [Example 448], the figure is < 100 nM; as for `COc1ccc(C(=O)N(C)[C@@H](CC(C)C)C(=O)N2C[C@]3(C[C@H]2C#N)C(=O)Nc2ccccc23)nc1` [Example 193], 100 to 1000 nM; as for `CC(C)C[C@@H](C(=O)N1C[C@]2(C[C@H]1C#N)C(=O)Nc1ccccc12)N(C)C(=O)c1ccn[nH]1` [Example 202], 100 to 1000 nM.
In the case of `Cc1c(C(=O)N[C@@H](CC2CC2)C(=O)N2C[C@]3(C[C@H]2C#N)C(=O)Nc2ccc(Cl)cc23)sc2cccc(F)c12` [Example 519, N—((S)-1-((3R,5′S)-5-chloro-5′-cyano-2-oxospiro[indoline-3,3′-pyrrolidin]-1′-yl)-3-cyclopropyl-1-oxopropan-2-yl)-4-fluoro-3-methylbenzo[b]thiophene-2-carboxamide], the concentration for half-maximal inhibition (IC50) is < 100 nM.
The same measure for `CC(C)C[C@@H](C(=O)N1C[C@]2(C[C@H]1C#N)C(=O)Nc1ccccc12)N(C)C(=O)c1cccc2ncc(F)cc12` [Example 304]: < 100 nM.
As for `C[C@@H](OC(=O)N[C@@H](CC(C)(C)C)C(=O)N1C[C@]2(C[C@H]1C#N)C(=O)Nc1ccc(Cl)cc12)c1ccc(F)cc1` [Example 495], the figure is < 100 nM; as for `CC(C)C[C@@H](C(=O)N1C[C@]2(C[C@H]1C#N)C(=O)Nc1ccccc12)N(C)C(=O)c1ccc(Cl)c(C(F)(F)F)c1` [Example 174], < 100 nM; as for `CC(C)C[C@@H](C(=O)N1C[C@]2(C[C@H]1C#N)C(=O)Nc1ccc(S(C)(=O)=O)cc12)N(C)C(=O)c1cc2c(F)cc(F)cc2[nH]1` [Example 500, N—((S)-1-((3R,5′S)-5′-cyano-5-(methylsulfonyl)-2-oxospiro[indoline-3,3′-pyrrolidin]-1′-yl)-4-methyl-1-oxopentan-2-yl)-4,6-difluoro-N-methyl-1H-indole-2-carboxamide], < 100 nM.
As for `C[C@H](OC(=O)N[C@@H](CC(C)(C)C)C(=O)N1C[C@]2(C[C@H]1C#N)C(=O)Nc1ccc(F)cc12)c1ccc(F)cc1` [Example 524], the figure is < 100 nM; as for `CN(C(=O)CCN1CCCC1)[C@@H](CC(C)(C)F)C(=O)N1C[C@]2(C[C@H]1C#N)C(=O)Nc1ccccc12` [Example 541], < 100 nM.
In the case of `C[C@@H]1COC[C@H](C)N1CCC(=O)N(C)[C@@H](CC(C)(C)F)C(=O)N1C[C@]2(C[C@H]1C#N)C(=O)Nc1ccccc12` [Example 546], the 50% inhibitory concentration (IC50) is < 100 nM.
For the compound `CC(C)C[C@@H](C(=O)N1C[C@]2(C[C@H]1C#N)C(=O)Nc1ccccc12)N(C)C(=O)c1cnc2ccccc2n1` [Example 298], the half-maximal inhibitory concentration (IC50) fell in the range of 100 to 1000 nM.
The same measure for `CN(C(=O)c1cnc(C(C)(C)C)[nH]1)[C@@H](CC1CC1)C(=O)N1C[C@]2(C[C@H]1C#N)C(=O)Nc1ccccc12` [Example 410]: < 100 nM; for `CC(C)C[C@@H](C(=O)N1C[C@]2(C[C@H]1C#N)C(=O)Nc1ccccc12)N(C)C(=O)CCN` [Example 367]: < 100 nM; for `CC(C)C[C@@H](C(=O)N1C[C@]2(C[C@H]1C#N)C(=O)Nc1ccccc12)N(C)C(=O)c1cc(Cl)c(F)cc1F` [Example 171]: < 100 nM.
The same measure for `CN(C(=O)c1cnn(-c2ccc(F)cc2)c1)[C@@H](CC1CC1)C(=O)N1C[C@]2(C[C@H]1C#N)C(=O)Nc1ccccc12` [Example 405]: < 100 nM; for `CC(C)C[C@@H](C(=O)N1C[C@]2(C[C@H]1C#N)C(=O)Nc1ccccc12)N(C)C(=O)CCNC(=O)c1ccc(F)cc1F` [Example 368]: < 100 nM.
As for `CC(C)C[C@@H](C(=O)N1C[C@]2(C[C@H]1C#N)C(=O)Nc1ccccc12)N(C)C(=O)c1cc2cncnc2[nH]1` [Example 489], the figure is < 100 nM.
Regarding `CC(C)C[C@@H](C(=O)N1C[C@]2(C[C@H]1C#N)C(=O)Nc1ccccc12)N(C)C(=O)c1ccc(Cl)cc1Cl` [Example 168], the IC50 is < 100 nM.
The same measure for `COc1ccc(C(=O)N(C)[C@@H](CC(C)C)C(=O)N2C[C@]3(C[C@H]2C#N)C(=O)Nc2ccccc23)cc1F` [Example 182]: < 100 nM; for `CC(C)(C)OC(=O)NC[C@H](NC(=O)c1cc2c(F)cc(F)cc2[nH]1)C(=O)N1C[C@]2(C[C@H]1C#N)C(=O)Nc1ccccc12` [Example 128]: > 1000 nM.
As for `CC(C)C[C@@H](C(=O)N1C[C@]2(C[C@H]1C#N)C(=O)Nc1ccccc12)N(C)C(=O)c1cn(-c2ccc(F)cc2)nn1` [Example 283], the figure is < 100 nM.

As a reminder, the IC50 is the concentration that inhibits the measured activity by half. Lower therefore signals inhibition by little substance.
